Data taken from the Deep4Chem optical property database.

Experiment: solvent given as SMILES
[1] = in O=P(c1ccccc1)(c1ccccc1)c1ccccc1Oc1ccccc1P(=O)(c1ccccc1)c1ccccc1

Molecule `CCC1(CC)c2cc(/C=C/c3cc(C#N)c(/C=C/c4ccc5c(c4)C(CC)(CC)c4cc(N6c7ccccc7Sc7ccccc76)ccc4-5)cc3C#N)ccc2-c2ccc(N3c4ccccc4Sc4ccccc43)cc21` has an emission maximum (in C1CCOC1) of 514 nm, an emission maximum (in CC#N) of 610 nm and an emission maximum (in CCCCCC) of 518 nm. It also gave an emission maximum (in Cc1ccccc1) of 547 nm and an emission maximum (in ClCCl) of 520 nm.

In the case of `c1ccc(-p2c(-c3cccs3)cc3ccccc32)cc1` (stereo unspecified), the emission maximum (in C1CCOC1) is reported as 417 nm.

`C(#Cc1ccccc1)C(C#Cc1ccccc1)=Cc1ccc(C=C(C#Cc2ccccc2)C#Cc2ccccc2)cc1` showed an emission maximum (in ClC(Cl)Cl) of 475 nm.

`N#Cc1cc(C#N)c(-n2c3ccccc3c3cc(-c4ccc5c(c4)c4ccccc4n5-c4cc(-n5c6ccccc6c6ccccc65)c(C#N)cc4C#N)ccc32)cc1-n1c2ccccc2c2ccccc21` showed an emission maximum [1] of 470 nm.

`CCCCCCCCc1ccc(-n2c3c(c4c2c2c(n4-c4ccc(CCCCCCCC)cc4)-c4ccccc4NB2c2ccccc2)B(c2ccccc2)Nc2ccccc2-3)cc1` gave an emission maximum (in Cc1ccccc1) of 400 nm.

`CCOC(=O)c1c2c3c(ccc(C)c3c3cc4ccccc4cc13)N(C)C2=O` gave an emission maximum (in CC#N) of 413 nm.

Molecule `CC(C)(C)c1ccc(-c2cc3c4c(c2)CCc2cc(-c5ccc(C(C)(C)C)cc5)cc(c2-4)CC3)cc1` has an emission maximum (in C1CCCCC1) of 382.09 nm, an emission maximum (in C1CCOC1) of 384.87 nm and an emission maximum (in CC#N) of 383.16 nm. The emission maximum (in CCCCCC) was 381.02 nm, the emission maximum (in CCO) was 382.73 nm and the emission maximum (in CN(C)C=O) was 386.79 nm. It also gave an emission maximum (in CO) of 381.87 nm, an emission maximum (in ClC(Cl)Cl) of 387.93 nm and an emission maximum (in ClCCl) of 386.36 nm.

Molecule `[O-][n+]1c(/C=C/c2ccccc2)nc(Nc2ccccc2)c2c1CCCC2` has an emission maximum (in ClCCl) of 508 nm.

With `OC1(c2ccc(-c3cccs3)s2)CCC1` the emission maximum (in C1CCOC1) was 470 nm, the emission maximum (in CC#N) was 460 nm and the emission maximum (in CCCCCC) was 465 nm. For the same molecule, the emission maximum (in CCO) was 415 nm, the emission maximum (in OCCOCCO) was 465 nm and the emission maximum (in c1ccncc1) was 468 nm.

For `CCCCn1c2ccc(-c3ccc4c(c3)c3c5c(ccc6ccccc65)ccc3n4CCCC)cc2c2c3c(ccc4ccccc43)ccc21`, the emission maximum (in ClCCl) was 437 nm.

`CCCCCCCCCCCCN1C(=O)c2c(c3ccc4cc(-c5ccc(Cl)cc5)c(OC)cc4c3c3c2ccc2cc(-c4ccc(Cl)cc4)c(OC)cc23)C1=O` gave an emission maximum (in ClCCl) of 526 nm.

In the case of `Ic1ccc(-c2c3ccc(=[N+]4CCCCC4)cc-3oc3cc(N4CCCCC4)ccc23)cc1`, the emission maximum (in CCO) is reported as 592 nm and the emission maximum (in ClCCl) is reported as 590 nm.

With `[BH3-][P+]1(c2ccccc2)c2ccccc2-c2sc3ccccc3c21` (stereo unspecified) the emission maximum (in C1CCCCC1) was 395 nm, the emission maximum (in CC#N) was 401 nm and the emission maximum (in CCO) was 400 nm. For the same molecule, the emission maximum (in ClCCl) was 400 nm.

For `c1cc2c3c(cccc3c1)C(N1CCOCCOCCN(C3=Nc4cccc5cccc3c45)CCOCC1)=N2`, the emission maximum (in CC#N) was 590 nm.

`c1ccc(-c2nc(-c3ccccc3)nc(-c3ccc(N4c5ccccc5C5(c6ccccc64)c4ccccc4C4(c6ccccc6Sc6ccccc64)c4ccccc45)cc3)n2)cc1` gave an emission maximum (in Cc1ccccc1) of 468.93 nm.

Work on `CC(=O)c1c2c(c(C(C)=O)c3c1OC(CC(=O)O)O3)OCO2` yielded an emission maximum (in CC#N) of 553 nm.

With `CCCCCCn1c2c(c3ccccc31)-c1c(c3ccccc3n1CCCCCC)-c1c(c3ccccc3n1CCCCCC)-c1c-2c2ccccc2n1CCCCCC` the emission maximum (in ClCCl) was 352 nm.

`O=S(=O)([O-])CCCCN1C=C/C(=C/C=C/C=C/c2cc[n+](CCCCS(=O)(=O)[O-])c3ccccc23)c2ccccc21` showed an emission maximum (in CO) of 830 nm.

`CCCCCCOc1ccc2ccc3oc(=O)cc4cc(OCCCCCC)c1c2c43` gave an emission maximum (in CC1CCCO1) of 490 nm.

`CC1(C)c2ccccc2N(c2ccc(-c3nc(-c4ccccn4)n(-c4ccc(N5c6ccccc6C(C)(C)c6ccccc65)cc4)n3)cc2)c2ccccc21` gave an emission maximum (in ClCCl) of 445 nm.

Molecule `Nc1ccc2c(c1)C(=O)c1ccccc1-2` has an emission maximum (in C1CCCCC1) of 569 nm and an emission maximum (in c1ccccc1) of 622 nm.

Work on `CC1=[N+]2C(=C(/C=C/c3ccc(C(F)(F)F)cc3)c3ccc(C)n3[B-]2(F)F)C=C1c1cc2n(c1)[B-](F)(F)[N+]1=CC=CC1=C2c1c(C)cc(C)cc1C` yielded an emission maximum (in C1CCCCC1) of 704 nm and an emission maximum (in CCOC(C)=O) of 710 nm.

`O=C1Cc2cc3c(cc2CCCc2ccc(cc2)CCC3)CC(=O)Cc2ccc(c3nsnc23)C1` showed an emission maximum (in C1CCCCC1) of 501 nm, an emission maximum (in CC#N) of 544 nm and an emission maximum (in ClC(Cl)Cl) of 522 nm.

`F[B-]1(F)n2cccc2C(c2ccccc2)=C2C=CC=[N+]21` gave an emission maximum (in Cc1ccccc1) of 521 nm and an emission maximum (in ClCCl) of 522 nm.

`N#CC1=c2c3cccc4c(Br)ccc(c43)n2[B-](F)(F)[n+]2ccccc21` showed an emission maximum (in C1CCOC1) of 545 nm, an emission maximum (in CC#N) of 541 nm and an emission maximum (in CCCCCC) of 545 nm. It also gave an emission maximum (in Cc1ccccc1) of 550 nm and an emission maximum (in ClCCl) of 546 nm.

`Cc1cccc(C)c1-c1cc2c(C)c3c4cc5nc6cc7c(cc6nc5cc4c3c(C)c2cc1-c1c(C)cccc1C)c1c(C)c2cc(-c3c(C)cccc3C)c(-c3c(C)cccc3C)cc2c(C)c71` showed an emission maximum (in ClC(Cl)Cl) of 523 nm.

With `FC(F)(F)c1ccc2oc3nc4oc5ccc(N6c7ccccc7Oc7ccccc76)cc5c4cc3c2c1` the emission maximum (in ClC(Cl)Cl) was 489 nm.

Work on `CC(C)(C)c1ccc2c(c1)c1cc(C(C)(C)C)ccc1n2-c1cccc(-c2nc(-c3cccc(-n4c5ccc(C(C)(C)C)cc5c5cc(C(C)(C)C)ccc54)c3)nc(-c3cccc(P(=O)(c4ccccc4)c4ccccc4)c3)n2)c1` yielded an emission maximum (in C1CCOC1) of 514.41 nm, an emission maximum (in CC#N) of 572.13 nm and an emission maximum (in CC(C)=O) of 552.3 nm. For the same molecule, the emission maximum (in CN(C)C=O) was 532.99 nm, the emission maximum (in Cc1ccccc1) was 481.21 nm and the emission maximum (in ClC(Cl)Cl) was 511.48 nm. The emission maximum (in ClCCl) was 532.99 nm and the emission maximum [1] was 484 nm.

`COc1cn2cc(-c3ccc(C#N)cc3)[n-][n+]2c1` showed an emission maximum (in ClCCl) of 505 nm.
